Results as given in ChEMBL document CHEMBL1201862, “PubChem BioAssay data set” (2004).
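48-hour exposure; five concentrations; linearly interpolated endpoints. GI50: concentration for 50% inhibition of growth.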 Activity calls are given as the source filed them. Rule as the data show it: active = GI50 up to about 1.1 µM and inactive = higher.

Columns and labels:
Experiment in all cases: NCI-60 cell line screen, 48 h
MDA-MB-435 = tested on: MDA-MB-435
SW-620 = tested on: SW-620
SK-OV-3 = tested on: SK-OV-3
COLO 205 = tested on: COLO 205
CAKI-1 = tested on: CAKI-1
LOX IMVI = tested on: LOX IMVI
SF-268 = tested on: SF-268
SNB-75 = tested on: SNB-75
HT-29 = tested on: HT-29
NCI-H522 = tested on: NCI-H522
K562 = tested on: K562
HOP-62 = tested on: HOP-62
RXF 393 = tested on: RXF 393
A549 = tested on: A549
A498 = tested on: A498
OVCAR-5 = tested on: OVCAR-5
PC-3 = tested on: PC-3
ACHN = tested on: ACHN
M14 = tested on: M14
UACC-62 = tested on: UACC-62

Measured: GI50

NNC(=O)CS(=O)(=O)Nc1ncccn1
inactive: MDA-MB-435 > 100 µM | SW-620 > 100 µM | SK-OV-3 > 100 µM | COLO 205 > 100 µM | CAKI-1 > 100 µM | LOX IMVI > 100 µM | SF-268 > 100 µM | SNB-75 > 100 µM | HT-29 > 100 µM | NCI-H522 > 100 µM | K562 > 100 µM | HOP-62 > 100 µM | RXF 393 > 100 µM | A549 > 100 µM | A498 > 100 µM | OVCAR-5 > 100 µM | PC-3 > 100 µM | ACHN > 100 µM | M14 > 100 µM | UACC-62 > 100 µM

Cc1ccc2c(c1)C(=O)C(Cc1ccccc1C(=O)O)C2 (stereo not given)
inactive: MDA-MB-435 > 100 µM | SW-620 > 100 µM | SK-OV-3 > 100 µM | COLO 205 > 100 µM | CAKI-1 > 100 µM | LOX IMVI > 100 µM | SF-268 > 100 µM | SNB-75 > 100 µM | HT-29 > 100 µM | NCI-H522 > 100 µM | K562 > 100 µM | HOP-62 > 100 µM | RXF 393 > 100 µM | A549 > 100 µM | A498 > 100 µM | OVCAR-5 > 100 µM | PC-3 > 100 µM | ACHN > 100 µM | M14 > 100 µM | UACC-62 > 100 µM

CC(C)[C@@H]1CC[C@@H](C)C[C@H]1OC(=O)/C=C1\C(C(=O)O[C@@H]2C[C@H](C)CC[C@H]2C(C)C)[C@H]2C=C[C@@H]1O2 (stereo not given in full)
inactive: MDA-MB-435 59 µM | SW-620 29.9 µM | SK-OV-3 > 100 µM | COLO 205 64.3 µM | CAKI-1 > 100 µM | LOX IMVI 34.1 µM | SF-268 76.4 µM | SNB-75 > 100 µM | HT-29 33.4 µM | NCI-H522 22.5 µM | K562 33.4 µM | HOP-62 > 100 µM | RXF 393 > 100 µM | A549 80.2 µM | A498 > 100 µM | OVCAR-5 > 100 µM | PC-3 37.3 µM | ACHN 27.1 µM | M14 89.5 µM | UACC-62 92.5 µM

CC1Cn2c(nc3ccccc32)NC1=O (stereo not given)
inactive: MDA-MB-435 > 100 µM | SW-620 > 100 µM | SK-OV-3 > 100 µM | COLO 205 > 100 µM | CAKI-1 > 100 µM | LOX IMVI > 100 µM | SF-268 > 100 µM | SNB-75 > 100 µM | HT-29 > 100 µM | NCI-H522 > 100 µM | K562 > 100 µM | HOP-62 > 100 µM | RXF 393 > 100 µM | A549 > 100 µM | A498 > 100 µM | OVCAR-5 > 100 µM | PC-3 > 100 µM | ACHN > 100 µM | M14 > 100 µM | UACC-62 > 100 µM

O=C(/C=C/c1ccccc1)Oc1ccc(C(=O)/C=C/c2ccccc2)cc1
inactive: MDA-MB-435 4.65 µM | SW-620 8.75 µM | SK-OV-3 21.4 µM | COLO 205 13.9 µM | CAKI-1 13.1 µM | LOX IMVI 4.98 µM | SF-268 12.3 µM | SNB-75 12.5 µM | HT-29 12.1 µM | NCI-H522 11.4 µM | K562 3.4 µM | HOP-62 12.9 µM | RXF 393 23.1 µM | A549 25.1 µM | A498 > 10 µM | OVCAR-5 13.7 µM | PC-3 9.31 µM | ACHN 11.9 µM | M14 14.1 µM | UACC-62 12.9 µM
